Assay results: BigSolDB 2.1

Clc1ccc(SSc2ccc(Cl)cc2)cc1
Settings | solubility (mole fraction)
in acetone, 302.95 K | 0.102
in acetone, 308.05 K | 0.145
in acetone, 313.25 K | 0.208
in chloroform, 303.15 K | 0.122
in chloroform, 307.95 K | 0.174
in chloroform, 312.55 K | 0.243
in ethanol, 304.35 K | 0.000264
in ethanol, 307.45 K | 0.000783
in ethanol, 312.35 K | 0.00305
in ethanol, 317.35 K | 0.00786
in ethyl acetate, 303.95 K | 0.0201
in ethyl acetate, 307.9 K | 0.038
in ethyl acetate, 312.35 K | 0.0667
in ethyl acetate, 319.05 K | 0.117
in methanol, 303.15 K | 0.00014
in methanol, 307.65 K | 0.00061
in methanol, 314.15 K | 0.00259
in methanol, 318.95 K | 0.00552
in toluene, 303.2 K | 0.0219
in toluene, 307.85 K | 0.0446
in toluene, 314.05 K | 0.0864
in toluene, 317.55 K | 0.114
